Data set [1] relates to PXB-cells. Briefly: Human albumin content in culture supernatant of PXB-cells (immunoturbidimetric method), toxicity index. It counts as cell-based. The note with it: 2 days.
The subject of data set [2] is PXB-cells. The experiment in a line: Screening test: total cholesterol and total neutral fat (triglyceride) in PXB-cells (Cholestest). It counts as cell-based, human. The note with it: lomitapide 1, 10, 100 μM, 2 days; PXB-cells pre-cultured 12 days in medium B (DMSO (+)); vs ethanol control. The method, then: Triglyceride in cells was measured by use of Cholestest (registered trademark) TG (Sekisui Medical Co., Ltd.) in accordance with the instruction by the manufacturer. More specifically, the cells were washed with PBS, and then, completely dewatered (stored at −80° C. until measurement). To each well containing the cells, 200 μL of TG enzyme solution (1) was added. A reaction was allowed to proceed while keeping the cells warm at 37° C. for 10 minutes (free glycerol was removed). Then, the cells were torn away by pipetting, transferred to a centrifuge tube and centrifuged at 10,000 rpm×10 minutes. Then, the supernatant (7.5 μL) was transferred to a 96-well microplate. […] The resultant reaction product was subjected to measurement of absorbance at 550 nm. The content of triglyceride was calculated based on HDL-C180A as the reference (triglyceride concentration of HDL-C180A was 52.26 mg/dL).
Intracellular cholesterol was measured by use of Cholestest (registered trademark) CHO (Sekisui Medical Co., Ltd.) in accordance with the instruction by the manufacturer. […] The resultant reaction product was subjected to measurement of absorbance at 550 nm. The content of cholesterol was calculated based on HDL-C180A as the standard ([…] concentration of HDL-C180A was 152.67 mg/dL). […]

In data set [3] the test system is PXB-cells. The experiment in a line: Screening test: total cholesterol and total neutral fat (triglyceride) in culture supernatant of PXB-cells (LipoSEARCH). The class given is cell-based, human. The settings on record: lomitapide 1, 10, 100 μM, 2 days; PXB-cells pre-cultured 12 days in medium B (DMSO (+)); vs ethanol control. The procedure:
Lipoproteins contained in the culture supernatants of PXB-cells, HepG2 cells and HuH7 cells were analyzed by using LipoSEARCH (registered trademark) method (Skylight Biotech, Inc.).
(§1) After completion of the culture mentioned above, the medium used in the culture was removed and 500 μL of medium D for analysis was added. The culture plate was gently placed in an incubator (37° C., 5% CO2) and the cells were cultured for 2 days. Thereafter, the culture supernatant was recovered, lipoproteins contained in the culture supernatant (80 μL) were fractionated into 4 types of subgroups, CM, VLDL, LDL and HDL fractions, by gel filtration HPLC. Cholesterol and neutral fat (triglyceride) contained in individual fractions were quantified by online enzyme reactions. […]
Each test substance was suspended with ethanol and added in a predetermined amount to a PXB-cell culture, gently placed in an incubator (37° C., 5% CO2) and cultured for 2 days. After completion of culture, the total cholesterol and total neutral fat (triglyceride) in culture supernatant and in cells were measured in accordance with the methods described in the sections “Analysis of lipoprotein in culture supernatant” and “Analysis of lipoprotein in cells”. […]

In data set [4] the test system is PXB-cells. Briefly: Total neutral fat of lipoproteins in culture supernatant of PXB-cells cultured with or without DMSO. The class given is cell-based, human. The settings on record: 2% DMSO, PXB-cells cultured 5 days. The method, then:
as §1, with “The following day of seeding, medium A was removed. Instead, 500 μL of medium B (DMSO (+)) or medium C (DMSO (−)) was added. The plate was gently placed in an incubator (37° C., 5% CO2) and the cells were cultured for 5 days. After completion of culture, an image of the cells was taken by a photomicrographic camera. Then, the culture supernatant was recovered and subjected to analysis for lipoprotein in the culture supernatant described below. Lipoproteins contained in the culture supernatants of PXB-cells, HepG2 cells and HuH7 cells were analyzed by using LipoSEARCH (registered trademark) method (Skylight Biotech, Inc.). After” for “After”

Data set [5] has as its system PXB-cells. Briefly: Fat droplets in PXB-cells cultured in medium with or without DMSO (photomicrograph). It counts as cell-based, human. The settings on record: 2% DMSO, PXB-cells cultured 5 days. The procedure: The following day of seeding, medium A was removed. Instead, 500 μL of medium B (DMSO (+)) or medium C (DMSO (−)) was added. The plate was gently placed in an incubator (37° C., 5% CO2) and the cells were cultured for 5 days. After completion of culture, an image of the cells was taken by a photomicrographic camera. Then, the culture supernatant was recovered and subjected to analysis for lipoprotein in the culture supernatant described below.

SMILES strings stand for the structures.

For the compound `O=C(NC1CCN(CCCCC2(C(=O)NCC(F)(F)F)c3ccccc3-c3ccccc32)CC1)c1ccccc1-c1ccc(C(F)(F)F)cc1` [lomitapide], in data set [1] (lomitapide 1, 10, 100 μM, PXB-cells in medium B (DMSO (+))), the “content of human albumin in the culture supernatant” value is on record as “decreased depending on the addition amount”. Also, the “toxicity (based on human albumin content)” value in data set [1] (lomitapide, high amount (1-100 μM tested), PXB-cells) is on record as “toxic”. In addition, in data set [2], the “total cholesterol content in the cells” value is reported as “no significant decrease” and the “total neutral fat (triglyceride) content in the cells” value is listed as “no significant decrease”. In data set [3], the “total cholesterol content in the culture supernatants” value is on record as “significantly decreased” and the “total neutral fat (triglyceride) content in the culture supernatants” value is on record as “significantly decreased”.
Take `C[S+](C)[O-]` [DMSO, dimethyl sulfoxide]: the “secretion of total neutral fat (triglyceride) in lipoproteins, medium B (DMSO (+)) relative to medium C (DMSO (−))” value in data set [4] was “about 9 times”. Besides, the “number of fat droplets, medium B (DMSO (+)) compared to medium C (DMSO (−))” value in data set [5] is reported as “about double”.
For `CCC(C)(C)C(=O)O[C@H]1C[C@@H](C)C=C2C=C[C@H](C)[C@H](CC[C@@H]3C[C@@H](O)CC(=O)O3)[C@H]21` [simvastatin], the “human albumin content in the culture supernatant” value in data set [1] (simvastatin 0.1, 1, 10 μM, PXB-cells in medium B (DMSO (+))) was “no significant decrease”.
